The values that follow come from US8076338B2, “Kinase modulators and methods of use” (Exelixis, Inc., priority 2004, dated 2011).

One test concerns the target AktK (Homo sapiens, UniProt P31749). The experiment in a line: Luciferase-coupled chemiluminescence kinase assay (ATP consumption). The class given is biochemical. The note with it: read-out: AKT-1 IC50. Summed up: (§1)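 Enzyme at 2.5-5 nM was preincubated 30 min at room temperature with compound in Tris pH 7.5, MgCl2, TX-100, DTT, then reacted with ATP for 3 h at ambient temperature. Remaining ATP was quantified by luciferase-luciferin chemiluminescence, with consumption kept at 25-60%; […].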

A further test addresses p70S6K (Homo sapiens, UniProt P23443). The description is as above. The class given is biochemical. The method in brief: as §1

Like-named read-outs stand apart in the source and are kept apart here.

p70S6K, sequence (P23443 whole entry): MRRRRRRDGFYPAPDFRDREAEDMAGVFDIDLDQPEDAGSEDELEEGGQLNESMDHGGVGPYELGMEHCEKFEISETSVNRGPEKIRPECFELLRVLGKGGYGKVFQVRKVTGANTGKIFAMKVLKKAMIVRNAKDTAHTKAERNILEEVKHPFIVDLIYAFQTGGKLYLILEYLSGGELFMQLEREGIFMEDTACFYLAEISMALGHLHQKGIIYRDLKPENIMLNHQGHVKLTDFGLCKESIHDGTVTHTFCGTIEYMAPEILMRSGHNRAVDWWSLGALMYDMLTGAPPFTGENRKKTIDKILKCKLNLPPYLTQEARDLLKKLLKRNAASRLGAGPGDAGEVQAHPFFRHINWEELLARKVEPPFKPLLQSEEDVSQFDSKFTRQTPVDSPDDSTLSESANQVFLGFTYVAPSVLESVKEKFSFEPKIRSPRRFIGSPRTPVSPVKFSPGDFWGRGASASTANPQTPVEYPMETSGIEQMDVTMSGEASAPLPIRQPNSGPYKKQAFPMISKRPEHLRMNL
AktK, sequence (P31749 whole entry): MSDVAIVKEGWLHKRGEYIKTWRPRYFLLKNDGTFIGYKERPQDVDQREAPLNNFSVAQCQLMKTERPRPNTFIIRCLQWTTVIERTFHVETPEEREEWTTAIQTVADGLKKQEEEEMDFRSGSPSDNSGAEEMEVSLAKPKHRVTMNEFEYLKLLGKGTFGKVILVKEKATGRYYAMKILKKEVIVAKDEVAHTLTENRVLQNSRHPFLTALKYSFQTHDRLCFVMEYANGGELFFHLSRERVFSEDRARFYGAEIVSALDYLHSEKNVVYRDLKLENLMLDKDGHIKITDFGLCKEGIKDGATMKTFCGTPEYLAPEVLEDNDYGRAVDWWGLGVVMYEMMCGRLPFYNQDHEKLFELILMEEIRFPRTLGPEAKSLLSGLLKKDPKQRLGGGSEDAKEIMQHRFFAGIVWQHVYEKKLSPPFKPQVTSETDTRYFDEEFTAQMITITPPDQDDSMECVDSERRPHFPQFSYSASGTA

Regarding `Clc1ccc(N2CCN(c3ncnc4[nH]nc(Br)c34)CC2)cc1Cl` [Entry 75, 3-bromo-4-[4-(3,4-dichlorophenyl)piperazin-1-yl]-1H-pyrazolo[3,4-d]pyrimidine], the IC50 at AktK (Table 1, class symbols per key) is at least 10000 nM; at p70S6K (Table 1, class symbols per key) it was 100 to 1000 nM.

For the molecule `Clc1ccc(Cl)c(N2CCN(c3ncnc4[nH]nc(Br)c34)CC2)c1` [Entry 95, 3-bromo-4-[4-(2,5-dichlorophenyl)piperazin-1-yl]-1H-pyrazolo[3,4-d]pyrimidine], the IC50 is at least 10000 nM on AktK (Table 1, class symbols per key) and under 100 nM at p70S6K (Table 1, class symbols per key).

In the case of `Cc1c(NCCN2CCCC2)cc(OCC(C)(C)F)cc1N1CCN(c2ncnc3[nH]nc(Br)c23)CC1` [Entry 216, 3-[4-(3-bromo-1H-pyrazolo[3,4-d]pyrimidin-4-yl)piperazin-1-yl]-5-[(2-fluoro-2-methylpro-pyl)oxy]-2-methyl-N-(2-pyrrolidin-1-ylethyl)aniline], the 50% inhibitory concentration (IC50) was under 100 nM at AktK (Table 1, class symbols per key) and under 100 nM against p70S6K (Table 1, class symbols per key).

As to `Cc1ccc(Cl)cc1N1CCN(c2ncnc3[nH]nc(-c4cccc(OCc5ccccc5)c4)c23)CC1` [Entry 336, 4-[4-(5-chloro-2-methylphenyl)piperazin-1-yl]-3-{3-[(phenylmethyl)oxy]phenyl}-1H-pyrazolo[3,4-d]pyrimidine], the half-maximal inhibitory concentration (IC50) at AktK and on p70S6K was 1000 to 10000 nM throughout.

For the molecule `FC(F)(F)c1ccnc(N2CCN(c3ncnc4[nH]nc(Br)c34)CC2)c1` [Entry 117, 3-bromo-4-{4-[4-(trifluoromethyl)pyridin-2-yl]piperazin-1-yl}-1H-pyrazolo[3,4-d]pyrimidine], the IC50 was at least 10000 nM on AktK (Table 1, class symbols per key) and 100 to 1000 nM at p70S6K (Table 1, class symbols per key).

On to `Cc1c(NCCN(C)C)cc(C(=O)Nc2ccccc2)cc1N1CCN(c2ncnc3[nH]nc(Br)c23)CC1` [Entry 225, 3-[4-(3-bromo-1H-pyrazolo[3,4-d]pyrimidin-4-yl)piperazin-1-yl]-5-{[2-(dimethylamino)eth-yl]amino}-4-methyl-N-phenylbenzamide], for which the IC50 on AktK (Table 1, class symbols per key) was under 100 nM; at p70S6K (Table 1, class symbols per key) it was under 100 nM.

`CCCC(O)c1cc(NCCN2CCCC2)c(C)c(N2CCN(c3ncnc4[nH]nc(Br)c34)CC2)c1` (stereo not drawn) [Entry 286, 1-{3-[4-(3-bromo-1H-pyrazolo[3,4-d]pyrimidin-4-yl)piperazin-1-yl]-4-methyl-5-[(2-pyrrolidin-1-ylethyl)amino]phenyl}butan-1-ol]: the IC50 on AktK (Table 1, class symbols per key) is under 100 nM; against p70S6K (Table 1, class symbols per key), under 100 nM.

Regarding `Cc1c(CCCN2CCCC2)cc(F)cc1N1CCN(c2ncnc3[nH]nc(Br)c23)CC1` [Entry 60, 3-bromo-4-{4-[5-fluoro-2-methyl-3-(3-pyrrolidin-1-ylpropyl)phenyl]piperazin-1-yl}-1H-pyrazolo[3,4-d]pyrimidine], the IC50 is 100 to 1000 nM on AktK (Table 1, class symbols per key) and under 100 nM against p70S6K (Table 1, class symbols per key).

In the case of `CCc1n[nH]c2ncnc(N3CCN(c4cc(OCc5ccccc5)cc(NCCN5CCCC5)c4C)CC3)c12` [Entry 174, 3-[4-(3-ethyl-1H-pyrazolo[3,4-d]pyrimidin-4-yl)piperazin-1-yl]-2-methyl-5-[(phenylmethyl)oxy]-N-(2-pyrrolidin-1-ylethyl)aniline], the IC50 was 100 to 1000 nM on AktK (Table 1, class symbols per key) and under 100 nM on p70S6K (Table 1, class symbols per key).

Regarding `Cc1ccc(Cl)cc1N1CCN(c2ncnc3[nH]nc(/C=C/C(=O)O)c23)CC1` [Entry 369, (2E)-3-{4-[4-(5-chloro-2-methylphenyl)piperazin-1-yl]-1H-pyrazolo[3,4-d]pyrimidin-3-yl}prop-2-enoic acid], the figures for the concentration for half-maximal inhibition (IC50) on AktK and against p70S6K were 100 to 1000 nM and under 100 nM, respectively.

Take `Cc1ccc(Cl)cc1N1CCN(c2ncnc3[nH]nc(-c4ccc(F)cc4)c23)CC1` [Entry 357, 4-[4-(5-chloro-2-methylphenyl)piperazin-1-yl]-3-(4-fluorophenyl)-1H-pyrazolo[3,4-d]pyrimidine]: the half-maximal inhibitory concentration (IC50) on AktK lay in the range of 1000 to 10000 nM; against p70S6K, 100 to 1000 nM.

Regarding `Cc1c(OCC2CCN(C)CC2)cc(Cl)cc1N1CCN(c2ncnc3[nH]nc(Br)c23)CC1` [Entry 88, 3-bromo-4-[4-(5-chloro-2-methyl-3-{[(1-methyl-piperidin-4-yl)methyl]oxy}phenyl)piperazin-1-yl]-1H-pyrazolo[3,4-d]pyrimidine], the IC50 at AktK (Table 1, class symbols per key) was under 100 nM; at p70S6K (Table 1, class symbols per key), under 100 nM.

As for `CCCCC(=O)c1cc(NCCN2CCCC2)c(C)c(N2CCN(c3ncnc4[nH]nc(CC)c34)CC2)c1` [Entry 262, 1-{3-[4-(3-ethyl-1H-pyrazolo[3,4-d]pyrimidin-4-yl)piperazin-1-yl]-4-methyl-5-[(2-pyrrolidin-1-ylethyl)amino]phenyl}pentan-1-one], the half-maximal inhibitory concentration (IC50) is under 100 nM at AktK (Table 1, class symbols per key) and under 100 nM on p70S6K (Table 1, class symbols per key).

With `COc1cc(OC)cc(N2CCN(c3ncnc4[nH]nc(Br)c34)CC2)c1` [Entry 80, 4-{4-[3,5-bis(methyloxy)phenyl]piperazin-1-yl}-3-bromo-1H-pyrazolo[3,4-d]pyrimidine], the IC50 on AktK (Table 1, class symbols per key) was 1000 to 10000 nM; on p70S6K (Table 1, class symbols per key) it was under 100 nM.

Regarding `Cc1c(NCCN2CCCC2)cc(OC(F)F)cc1N1CCN(c2ncnc3[nH]nc(Br)c23)CC1` [Entry 253, 3-[4-(3-bromo-1H-pyrazolo[3,4-d]pyrimidin-4-yl)piperazin-1-yl]-5-[(difluoromethyl)oxy]-2-methyl-N-(2-pyrrolidin-1-ylethyl)aniline], the 50% inhibitory concentration (IC50) at AktK (Table 1, class symbols per key) is under 100 nM; on p70S6K (Table 1, class symbols per key), under 100 nM.

As to `Clc1cccc(N2CCN(c3ncnc4[nH]nc(Br)c34)CC2)c1Cl` [Entry 150, 3-bromo-4-[4-(2,3-dichlorophenyl)piperazin-1-yl]-1H-pyrazolo[3,4-d]pyrimidine], the 50% inhibitory concentration (IC50) is at least 10000 nM at AktK (Table 1, class symbols per key) and 100 to 1000 nM against p70S6K (Table 1, class symbols per key).

For `O=[N+]([O-])c1ccccc1N1CCN(c2ncnc3[nH]nc(Br)c23)CC1` [Entry 121, 3-bromo-4-[4-(2-nitrophenyl)piperazin-1-yl]-1H-pyrazolo[3,4-d]pyrimidine], the half-maximal inhibitory concentration (IC50) was at least 10000 nM at AktK (Table 1, class symbols per key) and 100 to 1000 nM against p70S6K (Table 1, class symbols per key).

Take `Cc1c(NCCN2CCCC2)cc(OCC2CCC2)cc1N1CCN(c2ncnc3[nH]nc(Br)c23)CC1` [Entry 211, 3-[4-(3-bromo-1H-pyrazolo[3,4-d]pyrimidin-4-yl)piperazin-1-yl]-5-[(cyclobutylmethyl)oxy]-2-methyl-N-(2-pyrrolidin-1-ylethyl)aniline]: the IC50 at AktK (Table 1, class symbols per key) is under 100 nM; against p70S6K (Table 1, class symbols per key), under 100 nM.

For `Cc1c(NCCN2CCCC2)cc(C(=O)O)cc1N1CCN(c2ncnc3[nH]nc(Br)c23)CC1` [Entry 234, 3-[4-(3-bromo-1H-pyrazolo[3,4-d]pyrimidin-4-yl)piperazin-1-yl]-4-methyl-5-[(2-pyrrolidin-1-ylethyl)amino]benzoic acid], the IC50 at AktK (Table 1, class symbols per key) was 1000 to 10000 nM; against p70S6K (Table 1, class symbols per key) it was under 100 nM.

Turning to `Clc1cccc(N2CCN(c3ncnc4[nH]ncc34)CC2)c1` [Entry 298, 4-[4-(3-chlorophenyl)piperazin-1-yl]-1H-pyrazolo[3,4-d]pyrimidine], the half-maximal inhibitory concentration (IC50) was at least 10000 nM at AktK and 100 to 1000 nM at p70S6K.

For the molecule `Cc1c(NCCN2CCCC2)cc(C(=O)Nc2cccnc2)cc1N1CCN(c2ncnc3[nH]nc(Br)c23)CC1` [Entry 215, [4-(3-bromo-1H-pyrazolo[3,4-d]pyrimidin-4-yl)piperazin-1-yl]-4-methyl-N-pyridin-3-yl-5-[(2-pyrrolidin-1-ylethyl)amino]benzamide], the half-inhibitory concentration (IC50) is under 100 nM on AktK (Table 1, class symbols per key) and under 100 nM on p70S6K (Table 1, class symbols per key).

For the molecule `CCNC(=O)COc1cccc(N2CCN(c3ncnc4[nH]nc(Br)c34)CC2)c1` [Entry 139, 2-({3-[4-(3-bromo-1H-pyrazolo[3,4-d]pyrimidin-4-yl)piperazin-1-yl]phenyl}oxy)-N-ethylacetamide], the IC50 is 1000 to 10000 nM at AktK (Table 1, class symbols per key) and under 100 nM at p70S6K (Table 1, class symbols per key).

Turning to `CCc1n[nH]c2ncnc(N3CC4CC3CN4c3cccc(Cl)c3)c12` (stereo not drawn) [Entry 344, 4-[5-(3-chlorophenyl)-2,5-diazabicyclo[2.2.1]hept-2-yl]-3-ethyl-1H-pyrazolo[3,4-d]pyrimidine], the IC50 at AktK was 1000 to 10000 nM; on p70S6K, under 100 nM.

For `FC(F)(F)c1cccc(N2CCN(c3ncnc4[nH]cnc34)CC2)c1` [Entry 314, 6-{4-[3-(trifluoromethyl)phenyl]piperazin-1-yl}-9H-purine], the IC50 on AktK is at least 10000 nM; at p70S6K it was 100 to 1000 nM.

Take `CCc1cc(NCCN2CCCC2)c(C)c(N2CCN(c3ncnc4[nH]nc(Br)c34)CC2)c1` [Entry 245, 3-[4-(3-bromo-1H-pyrazolo[3,4-d]pyrimidin-4-yl)piperazin-1-yl]-5-ethyl-2-methyl-N-(2-pyrrolidin-1-ylethyl)aniline]: the concentration for half-maximal inhibition (IC50) at AktK (Table 1, class symbols per key) is 100 to 1000 nM; on p70S6K (Table 1, class symbols per key), under 100 nM.

Regarding `Brc1n[nH]c2ncnc(N3CCN(c4cnccn4)CC3)c12` [Entry 107, 3-bromo-4-(4-pyrazin-2-ylpiperazin-1-yl)-1H-pyrazolo[3,4-d]pyrimidine], the IC50 at AktK (Table 1, class symbols per key) was at least 10000 nM; against p70S6K (Table 1, class symbols per key), 100 to 1000 nM.

With `Clc1ccc(-c2ccccc2OCCN2CCCC2)cc1N1CCN(c2ncnc3[nH]nc(Br)c23)CC1` [Entry 287, 3-bromo-4-(4-{4-chloro-2′-[(2-pyrrolidin-1-ylethyl)oxy]biphenyl-3-yl}piperazin-1-yl)-1H-pyrazolo[3,4-d]pyrimidine], the 50% inhibitory concentration (IC50) on AktK (Table 1, class symbols per key) was under 100 nM; on p70S6K (Table 1, class symbols per key), under 100 nM.

As for `Cc1nc(N2CCN(c3cc(Cl)ccc3C)CC2)c2cn[nH]c2n1` [Entry 324, 4-[4-(5-chloro-2-methylphenyl)piperazin-1-yl]-6-methyl-1H-pyrazolo[3,4-d]pyrimidine], the 50% inhibitory concentration (IC50) on AktK and against p70S6K was 1000 to 10000 nM each time.

Consider `CCc1n[nH]c2ncnc(N3CCN(c4cc(OCC(F)(CF)CF)cc(Br)c4C)CC3)c12` [Entry 251, 4-[4-(3-bromo-5-{[2,3-difluoro-2-(fluorometh-yl)propyl]oxy}-2-methylphenyl)piperazin-1-yl]-3-ethyl-1H-pyrazolo[3,4-d]pyrimidine], for which the concentration for half-maximal inhibition (IC50) is 100 to 1000 nM on AktK (Table 1, class symbols per key) and under 100 nM at p70S6K (Table 1, class symbols per key).

For `FC(F)(F)c1cccc(N2CCN(c3ncnc4[nH]ncc34)CC2)c1` [Entry 316, 4-{4-[3-(trifluoromethyl)phenyl]piperazin-1-yl}-1H-pyrazolo[3,4-d]pyrimidine], the figures for the IC50 on AktK and against p70S6K were at least 10000 nM and under 100 nM, respectively.

For orientation: IC50 means the point on the concentration scale where inhibition reaches its midpoint.
